Entries after “also recorded” stand apart in the source; their conditions may differ.
Key:
Id1 and Id3 protein = assay: Western blot for Id1 and Id3; assay type: cell-based
Procedure: (§1) Western Blot Analysis. Total cellular protein was prepared using RIPA buffer containing a protease inhibitor cocktail and protein concentration was measured using the BCA assay as described. In brief, protein was analyzed by SDS-PAGE, transferred to nitrocellulose (Schleicher and Schuell, Keene, N.H.). After blocking, the blots were incubated overnight at 4° C. with the appropriate primary antibody in Tris-buffered saline with 1% Tween (TBST) and 5% non-fat milk. Secondary antibodies were applied for 1 hour at room temperature. Specific proteins were detected using the enhanced chemiluminescence system (Amersham, Arlington Heights, Ill.). The primary antibodies that were used were rabbit monoclonal anti-pSmad 1/5/8 (Cell signaling Technology, Danvers Mass.) rabbit anti-actin, an affinity isolated antigen specific antibody (Sigma, Saint Louis, Mo.), rabbit monoclonal anti-Id1 and rabbit monoclonal anti-Id3 (Calbioreagents, San Mateo, Calif.).

A549 cells = assay: Clonogenic growth assay; assay type: cell-based; conditions: 1 μM, 2 weeks
Procedure: (§2) Clonigenic Growth Assay. A549 and H1299 cells were plated into 6 well plates with 500 cells per well. The next day the cells were treated with DMSO or a BMP receptor antagonist for 2 weeks. The colonies were stained with Diff-Quick (IMEB Inc. San Marcos, Calif.) and the total number of colonies per well counted.

H1299 cells [1] = assay: Clonogenic growth assay; assay type: cell-based; conditions: 1 μM, 2 weeks
Procedure: as §2

Smad 1/5/8 activity = assay: BRE-luciferase reporter assay; assay type: cell-based; conditions: H1299 cells; 10 μM Dorsomorphin or 1 μM DMH1, DMH2, LDN; 48 hours; vs DMSO
Procedure: Luciferase Assays. 10^6 H1299 cells were transfected with 2 μg of BRE-luciferace plasmid using a Nucleofector II. […] Cells were lysed with luciferase lysis buffer (Promega). Samples were added to luciferase assay substrate (Promega) and luminsescence measured by the TD-20/20 Luminometer (Turner Designs/Turner BioSystems, Sunnyvale, Calif.). Control samples included luciferase assay substrate alone and luciferase assay substrate plus 1× reporter lysis buffer.

[2] = tested on: Id1, Id2, and Id3 expression; assay: Quantitative RT-PCR for Id family members; assay type: cell-based; conditions: A549 and H1299 cell lines; 10 μM Dorsomorphin, 1 μM DMH1 or DMH2; 48 hours
Procedure: Quantification of Gene Expression. RNA was extracted using the RNeasy kit as per the manufacturer's instructions (Qiagen, Valencia, Calif.). DNAase was used to remove any DNA contamination. cDNA was generated using Advantage RT for PCR kit (BD BiosciencesClontech, Palo Alto, Calif.). Quantitative PCR was performed with the Stratagene Mx3005p (Agilent Technologies) and predesigned validated Taq-Man gene expression assays according to the manufacturer's specifications (Applied Biosystems, Foster City, Calif.). Reference numbers used are: GAPDH (Hs99999905_m1), ACVRL1 (alk1) (Hs00163543_m1), ACVR1A (alk2) (Hs00153836_m1), BMR1A (alk3) (Hs00831730_s1), BMPR1B (alk6) (Hs00176144_m1), Id1 (Hs00357821_g1), Id2 (Hs00747379_m1), and Id3 (Hs00171409-m1). Negative control included all reagents except cDNA. Expression was normalized to GAPDH using the formula […].

[3] = tested on: constitutively active alk6 (ca-alk6); assay: BRE-luciferase with constitutively active alk6 in H1299 cells; assay type: cell-based; conditions: 1 μM antagonist
Procedure: To assess the effects of antagonists on a specific type I BMP receptor, 2 μg of constitutively active ca-alk3 and ca-alk6 expression vectors were co-transfected with the BRE-luciferase reporter into H1299 cells with Nucleofector II. Control cells were co-transfected with the pcDNA3 expression vector. After 48 hours the cells were treated with DMSO or a BMP receptor antagonist for 48 hours and luminescence was measured.

[4] = target: platelet-derived growth factor receptor-β (Homo sapiens, UniProt P09619); conditions: compared with Dorsomorphin and LDN; cited from earlier work
[5] = tested on: phosphorylated Smad 1/5/8; assay: Western blot for phosphorylated Smad 1/5/8; assay type: cell-based
Procedure: as §1

H1299 cells [6] = assay: BrdU incorporation assay; assay type: cell-based; conditions: 1 μM or 5 μM
Procedure: BrdU Assay. Thirty-thousand H1299 cells were plated into 96 well plates. The next day the cells were treated with 1 μM DMSO, 5 μM DMSO, 1 μM DMH2, or 5 μM DMH2 for 24 and 48 hours. BrdU incorporation was measured using the Cell Proliferation ELISA, BrdU colorimetric kit as per manufacture's instruction (Roche, Indianapolis, […]). Cells were incubated with BrdU labeling solution for 2 hours, fixed/denatured, and BrdU located with a peroxidase-conjugated anti-BrdU antibody. Knockdown of all type I BMP receptors were performed in the H1299 cells by transfecting siRNA for alk2, alk3, and alk6 or control siRNA. Three days after transfection BrdU incorporation was determined. Studies were performed 4 times in triplicate.

alk2 = target: T1, alk2 (Mus musculus, UniProt P37172); conditions: reported [26]; cited from earlier work
T1 construct: host or cells: C2C12
T1 sequence (P37172 21-509): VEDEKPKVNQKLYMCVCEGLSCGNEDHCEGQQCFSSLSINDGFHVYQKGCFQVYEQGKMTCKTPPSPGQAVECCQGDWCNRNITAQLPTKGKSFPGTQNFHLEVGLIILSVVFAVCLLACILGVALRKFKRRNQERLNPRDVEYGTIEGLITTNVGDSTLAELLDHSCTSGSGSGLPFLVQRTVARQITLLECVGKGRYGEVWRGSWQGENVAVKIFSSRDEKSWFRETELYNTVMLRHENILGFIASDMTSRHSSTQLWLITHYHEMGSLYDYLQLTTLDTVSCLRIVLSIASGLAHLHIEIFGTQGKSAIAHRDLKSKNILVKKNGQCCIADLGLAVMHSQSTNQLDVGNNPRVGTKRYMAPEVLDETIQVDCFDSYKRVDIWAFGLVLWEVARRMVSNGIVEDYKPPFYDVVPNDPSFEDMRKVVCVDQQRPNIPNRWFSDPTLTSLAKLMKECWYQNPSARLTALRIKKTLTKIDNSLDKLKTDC

H1299 cells [7] = assay: Trypan blue cell death counts; assay type: cell-based; conditions: 4 days

Sequence of platelet-derived growth factor receptor-β (P09619 33-1106, species assumed): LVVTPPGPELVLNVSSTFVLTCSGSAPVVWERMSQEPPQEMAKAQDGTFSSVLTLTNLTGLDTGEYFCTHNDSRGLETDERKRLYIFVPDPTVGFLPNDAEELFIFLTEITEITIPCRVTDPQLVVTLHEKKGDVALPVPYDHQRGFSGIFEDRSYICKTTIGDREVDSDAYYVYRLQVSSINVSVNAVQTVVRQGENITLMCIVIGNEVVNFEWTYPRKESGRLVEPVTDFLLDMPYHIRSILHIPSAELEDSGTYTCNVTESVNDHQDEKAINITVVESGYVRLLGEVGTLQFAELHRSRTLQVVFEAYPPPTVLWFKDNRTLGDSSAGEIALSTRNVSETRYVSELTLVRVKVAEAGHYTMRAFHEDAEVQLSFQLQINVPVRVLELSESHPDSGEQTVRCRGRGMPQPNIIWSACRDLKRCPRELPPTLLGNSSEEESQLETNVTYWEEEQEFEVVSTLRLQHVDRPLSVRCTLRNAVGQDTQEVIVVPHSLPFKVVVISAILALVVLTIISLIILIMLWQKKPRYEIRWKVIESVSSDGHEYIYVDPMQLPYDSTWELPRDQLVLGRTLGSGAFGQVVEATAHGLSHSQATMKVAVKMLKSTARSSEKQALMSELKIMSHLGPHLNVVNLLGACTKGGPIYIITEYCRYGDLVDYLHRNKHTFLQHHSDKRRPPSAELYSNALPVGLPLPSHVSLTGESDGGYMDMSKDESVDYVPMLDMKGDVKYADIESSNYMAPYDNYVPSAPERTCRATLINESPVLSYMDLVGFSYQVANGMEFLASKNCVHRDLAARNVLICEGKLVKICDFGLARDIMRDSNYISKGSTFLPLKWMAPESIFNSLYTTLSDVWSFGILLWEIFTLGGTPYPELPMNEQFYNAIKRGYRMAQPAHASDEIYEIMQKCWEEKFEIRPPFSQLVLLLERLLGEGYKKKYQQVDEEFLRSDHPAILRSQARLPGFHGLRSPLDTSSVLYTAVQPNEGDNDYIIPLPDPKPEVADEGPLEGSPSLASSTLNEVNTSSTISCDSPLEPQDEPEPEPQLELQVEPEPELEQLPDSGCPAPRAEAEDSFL

For `CN(C)CCCOc1ccc(-c2cnc3c(-c4ccnc5ccccc45)cnn3c2)cc1` [DMH2], the “protein levels of Id1 and Id3” value (Id1 and Id3 protein; A549 and H1299 cells) was “decrease”, the “reduction of Id1 protein expression (comparison)” value (Id1 and Id3 protein; H1299 and A549 cells, 1 μM) was “greater reduction of Id1 in H1299 cells compared to A549 cells; also recorded: greater reduction of Id1 protein expression than DMH1” and the clonogenic growth (A549 cells) was “inhibited more by DMH2 and LDN than DMH1”. The clonogenic growth (H1299 cells [1]) was “inhibited more by DMH2 and LDN than DMH1”, the “Smad 1/5/8 activity (BRE-luciferase activity)” value (Smad 1/5/8 activity) was “significant decrease” and the “Id1, Id2, and Id3 expression (mRNA)” value [2] was “significantly decreased”. The “inhibition of ca-alk6 activity (BRE-luciferase)” value [3] was “more inhibition of alk6 than DMH1 and LDN”, the “activity for platelet-derived growth factor receptor-β (comparison)” value [4] was “less activity” and the “phosphorylated Smad 1/5/8 expression” value ([5]; A549 cells) was “decreases”. The “level of phosphorylated Smad 1/5/8 expression” value ([5]; lung cancer cell lines (H1299, A549)) was “decreased”, the “proliferation (BrdU incorporation)” value (H1299 cells [6]; 24 hours) was “dose dependent decrease in proliferation” and the “proliferation (BrdU incorporation)” value (H1299 cells [6]; 48 hours) was “more profound effect”. For the same molecule, the “inhibition of alk2 activity” value (alk2) was “inhibit”, the “percentage of dead cells (trypan blue)” value (H1299 cells [7]; H1299 cultured in SFM, 1 μM, compared with DMEM 5% FCS) was “even higher” and the “cell death (percentage of dead cells, trypan blue)” value (H1299 cells [7]; H1299 in DMEM 5% FCS, 1 μM and 5 μM) was “significant increased in cell death, which was dose dependent”.
